Data on one compound can be found in US20240132461A1, “FLAVONE DEAZA SPERMIDINE ANALOGUES AND THEIR USE TREATING CANCER” (FLORATEK PHARMA S.A., priority 2021, published 2024).

One experiment concerns U-87MG. Briefly: Cell viability assay, brain carcinoma cell line U-87MG. As to conditions: Homo sapiens; U-87MG brain carcinoma cell line, 72 h, absolute IC50. The format is cell-based. As to the method:
(§1) Antitumor activity of the compounds and doxorubicin as a positive control was assessed by using the CellTiter-Blue Cell Viability Assay (Promega, #G8082) or CellTiter-Glow® Luminescent Cell Viability assay (Promega # G7572) according to the manufacturer's instructions. The compounds were tested at 5 or 6 concentrations in half-log increments (highest concentration 30 μM-100 μM) in duplicate or triplicate well conditions.
(§2) Tumor cells were grown at 37° C. in a humidified atmosphere with 5% CO2 in RPMI 1640 or DMEM medium, supplemented with 10% (v/v) fetal calf serum and 50 μg/ml gentamicin for up to 20 passages, and were passaged once or twice weekly. Cells were harvested using TrypLE or PBS buffer containing 1 mM EDTA, and the percentage of viable cells is determined using a CASY Model TT cell counter (OMNI Life Science). Cells were harvested from exponential phase cultures, counted and plated in 96 well flat-bottom microtiter plates at a cell density depending on the cell line's growth rate (4,000-20,000 cells/well depending on the cell line's growth rate, up to 60,000 for hematological cancer cell lines) in RPMI 1640 or DMEM medium supplemented with 10% (v/v) fetal calf serum and 50 μg/ml gentamicin (140 μl/well). Cultures were incubated at 37° C. and 5% CO2 in a humidified atmosphere. After 24 h, 10 μl of test compounds or control medium are added, and left on the cells for another 72 h. Compounds were serially diluted in DMSO, transferred in cell culture medium, and added to the assay plates. The DMSO concentration was kept constant at <0.3% v/v across the assay plate. Viability of cells was quantified by the CellTiter-Blue® cell viability assay (Promega G8081) or CellTiter-Glow® Luminescent Cell Viability assay (Promega # G7572). Fluorescence (FU) was measured by using the EnSpire® multimode plate reader (Perkin Elmer) (excitation λ=570 nm, emission λ=600 nm) or luminescent detection of ATP in viable cells was used as parameter for proliferation. Luminescence was measured with the microplate luminometer (Promega or Perkin Elmer).
(§3) Sigmoidal concentration-response curves were fitted to the data points (test-versus-control, T/C values) obtained for each tumor model using 4 parameter non-linear curve fit (Charles River DRS Datawarehouse Software) or with GraphPad prism 5.02 software. IC50 values are reported as absolute IC50 values, being the concentration of test compound at the intersection of the concentration-response curves with T/C=50%

The next experiment concerns BR-05-0014E. Briefly: PDX cytotoxicity assay, breast PDX BR-05-0014E. The experiment is classed as cell-based. The procedure: (§4) PDX-derived cell cultures were obtained from tumors explanted from mice and isolated by mechanical and enzymatic dissociation. […] Cells were harvested and seeded in 96-wells plates at a density of 1.25 to 5×10^3 cells/well for cytotoxicity assays. Cells were incubated 48 h at 37° C. prior to addition of test molecules and vehicle (DMSO, 0.1%) at desired final concentrations. Cell viability was assessed before drugs' addition (T0) and 5 days after test molecules addition by measuring ATP cell content using CellTiter-Glo® Luminescent Cell Viability Assay (Promega) according to the manufacturer's instructions. Luciferase activity was measured on a luminometer (PerkinElmer® EnVision™). Each concentration of compounds was tested in triplicate.
(§5) Viability was calculated as a percentage of ATP value compared to vehicle treated controls.
(§6) For PDX primary cell cultures, the tumour tissue was washed with PBS containing antibiotic-antimycotic and non-tumour tissue and necrotic tumour tissues were separated. The tumour tissue was transferred to a new dish and cut into 1˜2 mm^3 fragments, resuspended in RPMI-1640 medium and centrifuged at 1,200 rpm for 6 min at room temperature. The pelleted material was resuspended with 15 mL of Tumour Cell Digestion Solution and incubated at 37° C. for 1 hour with agitation. […]

The subject of another experiment is HBCx-3. Put plainly: PDX cytotoxicity assay, breast PDX HBCx-3. The experiment is classed as cell-based. As to the method: as §4, §5, §6
In another experiment the test system is CO-04-0700. Put plainly: PDX cytotoxicity assay, colon PDX CO-04-0700. The experiment is classed as cell-based. As to the method:
as §4, §5, §6

The test system of a further experiment is K562. Briefly: Cell viability assay, leukaemia cell line K562. The format is cell-based. As to conditions: Homo sapiens. As to the method:
as §1
(§7) Tumor cells were grown at 37° C. in a humidified atmosphere with 5% CO2 in RPMI 1640 or DMEM medium, supplemented with 10% (v/v) fetal calf serum and 50 μg/ml gentamicin for up to 20 passages, and were passaged once or twice weekly. Cells were harvested using TrypLE or PBS buffer containing 1 mM EDTA, and the percentage of viable cells is determined using a CASY Model TT cell counter (OMNI Life Science). Cells were harvested from exponential phase cultures, counted and plated in 96 well flat-bottom microtiter plates at a cell density depending on the cell line's growth rate (4,000-20,000 cells/well depending on the cell line's growth rate, up to 60,000 for hematological cancer cell lines) in RPMI 1640 or DMEM medium supplemented with 10% (v/v) fetal calf serum and 50 μg/ml gentamicin (140 μl/well). […] Viability of cells was quantified by the CellTiter-Blue® cell viability assay (Promega G8081) or CellTiter-Glow® Luminescent Cell Viability assay (Promega # G7572). […]

The subject of another experiment is NALM-6. Put plainly: Cell viability assay, leukaemia cell line NALM-6. The format is cell-based. As to conditions: Homo sapiens; NALM-6 leukaemia cell line. The procedure:
as §1, §7

In a further experiment the test system is SC6. Briefly: PDX cytotoxicity assay, small cell lung carcinoma PDX SC6. The experiment is classed as cell-based. As to the method:
as §4, §5, §6

In the next experiment the test system is NAWALMA. Briefly: Cell viability assay, lymphoma cell line NAWALMA. The experiment is classed as cell-based. As to the method: as §1, §7
Another experiment relates to GA-10. Briefly: Cell viability assay, lymphoma cell line GA-10. The format is cell-based. The conditions noted are these: Homo sapiens; GA-10 lymphoma cell line. The procedure: as §1, §7
The test system of the next experiment is LY-24-0340. Put plainly: PDX cytotoxicity assay, lymphoma PDX LY-24-0340. The format is cell-based. As to the method:
as §4, §5, §6

The subject of a further experiment is HN-13-0020. Put plainly: PDX cytotoxicity assay, head and neck PDX HN-13-0020. The experiment is classed as cell-based. As to the method:
as §4, §5, §6

The target in another experiment is T1, PIM1 (Homo sapiens, UniProt P11309).
T1 construct: purchased Eurofins (KINOMEscan assay service); host or cells: E. coli BL21-derived (T7 phage) or HEK-293
Briefly: KINOMEscan competition binding assay, PIM1. From the text: (§8) The Hill Slope was set to −1.

The target of another experiment is T2, PIM3 (Homo sapiens, UniProt Q86V86).
T2 construct: purchased Eurofins (KINOMEscan assay service); host or cells: E. coli BL21-derived (T7 phage) or HEK-293
Briefly: KINOMEscan competition binding assay, PIM3.
From the text: as §8

Experiment [1] addresses T3, RSK2(Kin.Dom.1-N-terminal) (Homo sapiens, UniProt P51812).
T3 construct: RSK2(Kin.Dom.1-N-terminal); purchased Eurofins (KINOMEscan assay service); host or cells: E. coli BL21-derived (T7 phage) or HEK-293
Put plainly: KINOMEscan competition binding assay, RSK2(Kin.Dom.1-N-terminal).
From the text: as §8

For the next experiment, the target named is T4, SNARK (Homo sapiens, UniProt Q9H093).
T4 construct: purchased Eurofins (KINOMEscan assay service); host or cells: E. coli BL21-derived (T7 phage) or HEK-293
Put plainly: KINOMEscan competition binding assay, SNARK.
From the text: as §8

A further experiment concerns brain cancer cell. Put plainly: Cell viability assay, brain cancer cell lines (summary). The format is cell-based. As to conditions: summary of Tables 3A-D; read-out: IC50s, brain cancer cell growth. As to the method: as §1, §2, §3
The next experiment relates to lung carcinoma cell. Put plainly: Cell viability assay, lung carcinoma cell lines (summary). The format is cell-based. As to conditions: summary of Tables 7A-E; read-out: IC50s, lung carcinoma cell growth. As to the method:
as §1, §2, §3

On to `COc1c(O)ccc2c(=O)cc(-c3ccc(CNCCCCNCCCN)cc3)oc12` [SND164], for which the IC50 turned out to be 5.7 µM in the experiment on U-87MG; 13.3 µM with BR-05-0014E; 10 µM in the experiment with HBCx-3; 7 µM in the experiment on CO-04-0700; 3.48 µM in the experiment on K562; 4.45 µM in the experiment with NALM-6. Further, the IC50 in the experiment on SC6 is 3.64 µM; in the experiment with NAWALMA, 2.6 µM; in the experiment on GA-10, 3.9 µM; in the experiment on LY-24-0340, below 0.16 µM; in the experiment on HN-13-0020 it was 2.7 µM; in the experiment on brain cancer cell it was below 10 µM. Moreover, the IC50 with lung carcinoma cell was below 20 µM. The dissociation constant Kd stood at 0.58 µM at PIM1, 0.43 µM on PIM3, 1.4 µM in experiment [1] and 0.9 µM at SNARK.
